{"source": "patent US20060194814A1", "about": "“Benzamide compounds” (priority 2003, published 2006)", "key": {"[1]": {"system": "HIV-1 IIIB strain", "test": "HIV-1 IIIB replication in HeLa indicator cells (AV-Finder-HIV assay), no pre-medication", "assay_type": "cell-based"}, "[2]": {"system": "multi-drug resistant HIV MDR-769 strain", "test": "HIV MDR 769 strain replication in HeLa cells, without pre-medication", "assay_type": "cell-based"}, "[3]": {"system": "HeLa cells", "test": "MTT cytotoxicity assay after the HIV replication protocol", "assay_type": "cell-based, human", "conditions": "all concentrations tested, up to 100 μM"}, "[4]": {"system": "H295R human adrenal tumor cells", "test": "MTT mitochondrial function/cell viability in H295R cells", "assay_type": "cell-based", "procedure": "Cell viability at the end of the incubation protocol described above was assessed using the mitochondrial integrity 3-(4,5-dimethylthiazol-2-yl)-2,5-diphenyl tetrazolium bromide (MTT) assay (Trevigen, Gaithersburg, Md.). Briefly, 10 l of the MTT solution were added to the cells in 100 l medium. After an incubation period of 4 hours, 100 l of detergent were added and cells were incubated overnight at 37° C. Formazan blue formation was quantified at 600 nm and 690 nm using the Victor quantitative detection spectrophotometer (EGG-Wallac, Gaithersburg, Md.) and the results expressed as (OD600-OD690)."}, "[5]": {"biological_target": "T1, P-450scc (Mus musculus, UniProt Q9QZ82)", "T1 construct": "endogenous in cells; host or cells: Y1 mouse adrenal tumor cells", "T1 sequence (Q9QZ82 37-526)": "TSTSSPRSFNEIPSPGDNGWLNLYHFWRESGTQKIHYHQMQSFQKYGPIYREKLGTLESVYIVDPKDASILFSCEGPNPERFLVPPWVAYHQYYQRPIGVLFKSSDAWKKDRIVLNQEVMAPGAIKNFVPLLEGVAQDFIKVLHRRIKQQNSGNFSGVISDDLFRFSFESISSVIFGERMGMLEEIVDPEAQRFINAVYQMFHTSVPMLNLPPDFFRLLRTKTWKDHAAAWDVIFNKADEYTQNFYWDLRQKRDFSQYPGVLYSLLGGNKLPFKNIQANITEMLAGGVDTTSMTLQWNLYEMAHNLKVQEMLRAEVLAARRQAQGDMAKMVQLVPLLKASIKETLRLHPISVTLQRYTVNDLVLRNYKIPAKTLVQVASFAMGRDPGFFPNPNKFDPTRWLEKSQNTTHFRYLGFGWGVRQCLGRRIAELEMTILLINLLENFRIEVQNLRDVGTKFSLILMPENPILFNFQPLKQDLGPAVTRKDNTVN", "test": "22R-hydroxycholesterol-induced 20á-hydroxyprogesterone synthesis in Y1 cells", "assay_type": "cell-based", "procedure": "[…] […] The synthesis of 20 —OH progesterone and progesterone in Y1 and MA-10 cell media respectively were measured by RIA (Brown et al., 1992). H295R human adrenal tumor cells were seeded in 48-well plates at 10^5 cells/well and incubated for 24 hours. […] At the end of the incubation time period, cells were treated with 1 mM dbcAMP for 48 hours. Cortisol levels in the media were determined by radioimmunoassay as previously described (Amri et al., 1996)."}, "[6]": {"system": "P-450scc enzyme", "test": "Immunoblot of P-450scc expression in Y1 cells", "assay_type": "cell-based, mouse", "conditions": "immunoblot of cell extracts", "procedure": "(§1) At the end of the treatment protocol described above, Y1 cells at 90% confluency were washed 2 times with PBS, sonicated 15 seconds in extraction buffer and centrifuged at 18,500 g for 15 minutes at 4° C. Pellets were resuspended in ice-cold lysis buffer (1% Nonidet 40 in extraction buffer), sonicated briefly, and incubated on ice for 1 hour. After centrifugation (22,500 g×30 min, 4° C.), the supernatant was mixed in sample buffer 6× (0.27 M SDS, 0.6 M dithiothreitol, 0.18 M bromphenol blue in 7 ml of 0.5 M Tris-HCl, pH 6.8, and 3 ml glycerol) and boiled for 5 minutes. Proteins were subjected to SDS-PAGE (4-20% gradient SDS polyacrylamide gel) and electrophoretically transferred onto nitrocellulose membranes. The transblot sheets were blocked with 5% non fat dry milk in 25 mM Tris HCl, pH 7.5, 150 mM NaCl, and 0.1% Tween 20 overnight at 4° C. Membranes were then incubated with appropriately diluted primary antibodies 1:800 for anti-P-450scc (Research Diagnostics Inc. Flanders, N.J.) and 1:200 for anti-StAR (Amri et al., 1996), and the reaction was detected by a peroxidase-conjugated secondary antibody (Santa Cruz Biotechnology, Santa Cruz, Calif.) and enhanced chemiluminescence (Amersham Life, Arlington Heights, Ill.). The densities of the appropriate bands were determined using the OptiQuant Acquisition & Analysis software (Packard BioScience)."}, "[7]": {"system": "steroidogenesis acute regulatory protein (StAR)", "test": "Immunoblot of StAR protein in Y1 cells", "assay_type": "cell-based, mouse", "conditions": "1 μM procaine, 48 hour treatment", "procedure": "as §1"}, "[8]": {"system": "HMG-CoA reductase", "test": "HMG-CoA reductase activity in procaine-treated Y1 cells", "assay_type": "cell-based, mouse", "set-up": "percent inhibition of HMG-CoA reductase activity: unit of the concentration uncertain", "procedure": "Cells were washed twice with ice-cold PBS and incubated with ice-cold assay buffer (0.1M sucrose, 40 mM KH2PO4, 30 mM EDTA, 50 mM KCl, 5 mM DTT, 0.25% (v/v) of Brij 96, at pH 7.4) on ice for 20 minutes. After centrifugation for 3 minutes at 14000 g (4° C.) the supernatants were collected and used for HMG-CoA reductase activity assay. […] The reaction was started by adding substrate (^14C-HMG-CoA, 0.1 Ci) and stopped after 45 minutes by adding 10-1 of HCl 6M. ^3H-mevalonolactone was also added to the samples as an extraction recovery marker. After an additional 30 minutes incubation time, to allow complete lactonization of the product, the mixture was centrifuged."}, "[9]": {"system": "HMG-CoA reductase mRNA", "test": "HMG-CoA reductase mRNA expression by Q-PCR in Hepa1-6 cells", "assay_type": "cell-based", "conditions": "Hepa1-6 mouse liver hepatoma cells", "procedure": "After treatment, cells were stimulated with 1 mM dbcAMP for 24 hours. At the end of the incubation, total cell RNA was extracted using RNA STAT-60 (Tel-Test Inc, Friendswood, Tex.) according to the manufacturer's instructions. HMG-CoA reductase mRNA was quantified by Q-PCR using the ABI Prism 7700 sequence detection system (Perkin-Elmer/Applied Biosystems, Foster City, Calif.). RT reaction was performed using TaqMan® Reverse Transcription Reagents with 1 g total RNA and random hexamers as primers for each reaction according to the manufacturer's instructions. For quantifying mouse HMG-CoA reductase mRNA with Q-PCR, the primers were designed according to GenBank Accession Number BC 019782 using PE/AB Primer Express software, which is specifically designed for the selection of primers and probes. The forward primer was 5′-[…]-3′ (22 nucleotides; SEQ ID NO:1) and reverse primer was 5′-[…]-3′ (23 nucleotides; SEQ ID NO:2), respectively. The primers were synthesized by Bio-Synthesis Inc. (Lewisville, Tex.). Reactions were performed in a reaction mixture consisting of a 20 l volume solution containing 10 l SYBR® Green PCR Master Mix and 1 l primers mix (5 M each) with 2 l cDNA."}}, "note": "Where a name gives a salt, the structure may show the parent alone. Read-outs that look alike come from different tables or passages of the source.", "data": [{"smiles": "CCN(CC)CCOC(=O)c1ccc(N)cc1", "note": "[SP01, procaine HCl]", "values": [{"measurement": "efficacy in reducing HIV-1 IIIB replication compared to AZT, ddI or 3TC", "setting": "[1]; human cells", "result": "efficacy higher than AZT, ddI or 3TC"}, {"measurement": "efficacy on HIV-1 IIIB viral replication compared to 3TC", "setting": "[1]; no pre-medication, concentrations up to 0.1 μM", "result": "higher efficacy than the classical antiviral agent 3TC"}, {"measurement": "effect on HIV MDR 769 strain replication", "setting": "[2]", "result": "effectively blocked"}, {"measurement": "effect on HIV MDR 769 strain replication", "setting": "[2]; concentrations higher than 1 nM", "result": "not effective"}, {"measurement": "inhibition of HIV MDR 769 viral replication", "setting": "[2]; concentrations up to 1 nM", "result": 75, "unit": "%"}, {"measurement": "cell toxicity (MTT)", "setting": "[3]", "result": "devoid of cell toxicity"}, {"measurement": "effect on dbcAMP-induced change of mitochondrial function (MTT)", "setting": "[4]", "result": "protected against the dbc-AMP-induced change of mitochondrial function"}, {"measurement": "effect on 22R-hydroxycholesterol-induced steroidogenesis", "setting": "[5]", "result": "did not inhibit"}, {"measurement": "effect on expression of the P-450scc enzyme", "setting": "[6]", "result": "did not modify"}, {"measurement": "effect on levels of the mature 30 kDa StAR protein", "setting": "[7]", "result": "did not affect"}, {"measurement": "percent inhibition of HMG-CoA reductase activity", "setting": "[8]; concentration 1 (unit uncertain)", "result": 44, "unit": "%"}, {"measurement": "percent inhibition of HMG-CoA reductase activity", "setting": "[8]; concentration 10 (unit uncertain)", "result": 72, "unit": "%"}, {"measurement": "percent inhibition of HMG-CoA reductase activity", "setting": "[8]; concentration 100 (unit uncertain)", "result": 70}, {"measurement": "concentration giving maximal inhibition of HMG-CoA reductase activity", "setting": "[8]; dbcAMP stimulated", "result": 10, "unit": "µM"}, {"measurement": "effect on dbcAMP-induced HMG-CoA reductase mRNA levels", "setting": "[9]", "result": "inhibited"}]}]}
